Experimental data published in ChEMBL document CHEMBL3885881, “DrugMatrix”.
“And” between values parts separate entries of the source, which are not always exact repeats. Identical values can stand only once.

Species: Rattus norvegicus
Assay: DrugMatrix - Regimen: Daily Repeat
Format: toxicity, organism-based, Sprague-Dawley
Design: regimen Daily Repeat, gender Male, age 6-8 weeks
Settings: in vivo, po, route oral GAVAGE, vehicle 100 % WATER; for ABSOLUTE SEGMENTED NEUTROPHIL / BASOPHIL / EOSINOPHIL / ERYTHROCYTE COUNT / HEMATOCRIT / HEMOGLOBIN / LEUKOCYTE COUNT / LYMPHOCYTE / MEAN CORPUSCULAR HEMOGLOBIN / MEAN CORPUSCULAR HEMOGLOBIN CONCENTRATION / MEAN CORPUSCULAR VOLUME / MONOCYTE / NEUTROPHIL / NUCLEATED RED BLOOD CELLS / PLATELET COUNT / ABSOLUTE BASOPHIL / ABSOLUTE EOSINOPHIL / ABSOLUTE LYMPHOCYTE / ABSOLUTE MONOCYTE: tissue Blood; for ALANINE AMINOTRANSFERASE / ALBUMIN / ALKALINE PHOSPHATASE / ASPARTATE AMINOTRANSFERASE / BLOOD UREA NITROGEN / CARBON DIOXIDE / CHLORIDE / CHOLESTEROL / CREATINE PHOSPHOKINASE / CREATININE / GLUCOSE / LACTATE DEHYDROGENASE / LIPASE / PHOSPHORUS / POTASSIUM / SODIUM / TOTAL BILIRUBIN / TOTAL PROTEIN / URIC ACID: tissue Plasma
[1] = 0 mg/kg, 72 h, dose level Control, time 3 day
[2] = 0 mg/kg, 120 h, dose level Control, time 5 day
[3] = 0 mg/kg, […], dose level Control, time 14 day
[4] = 120 mg/kg, 72 h, dose level High, time 3 day
[5] = 120 mg/kg, 120 h, dose level High, time 5 day

Structure (SMILES): COCCc1ccc(OCC(O)CNC(C)C)cc1 (centres undefined) [METOPROLOL]
- ABSOLUTE SEGMENTED NEUTROPHIL [1]: 1139.67 CELLS/uL
- BASOPHIL [1]: 1.07% and 0%
- EOSINOPHIL [1]: 1.03% and 0.83%
- ERYTHROCYTE COUNT [1]: 5.88 x10E6/uL and 5.54 x10E6/uL
- HEMATOCRIT [1]: 38.37% and 35.35%
- HEMOGLOBIN [1]: 12.5 G/DL and 13.22 G/DL
- LEUKOCYTE COUNT [1]: 11.61 x10E3/uL and 12 x10E3/uL
- LYMPHOCYTE [1]: 74.4% and 89%
- MEAN CORPUSCULAR HEMOGLOBIN [1]: 21.23 pg and 23.88 pg
- MEAN CORPUSCULAR HEMOGLOBIN CONCENTRATION [1]: 32.5 G/DL and 37.4 G/DL
- MEAN CORPUSCULAR VOLUME [1]: 65.47 fL and 63.85 fL
- MONOCYTE [1]: 2.73% and 1%
- NEUTROPHIL [1]: 20.17% and 9.17%
- NUCLEATED RED BLOOD CELLS [1]: 0 /100WBC
- PLATELET COUNT [1]: 1067 x10E3/uL and 1333.33 x10E3/uL
- ALANINE AMINOTRANSFERASE [1]: 35.33 u/L and 53.17 u/L
- ALBUMIN [1]: 3.83 G/DL and 4.32 G/DL
- ALKALINE PHOSPHATASE [1]: 469.67 u/L and 404.33 u/L
- ASPARTATE AMINOTRANSFERASE [1]: 65.33 u/L and 83.17 u/L
- BLOOD UREA NITROGEN [1]: 16.33 mg/dL and 15.67 mg/dL
- CARBON DIOXIDE [1]: 44.67 mmol/L and 27.33 mmol/L
- CHLORIDE [1]: 102 MEQ/L and 101.83 MEQ/L
- CHOLESTEROL [1]: 71.33 mg/dL and 68.67 mg/dL
- CREATINE PHOSPHOKINASE [1]: 256.67 u/L and 276.17 u/L
- CREATININE [1]: 0.4 mg/dL and 0.18 mg/dL
- GLUCOSE [1]: 165 mg/dL and 163.5 mg/dL
- LACTATE DEHYDROGENASE [1]: 114.33 u/L and 144.67 u/L
- LIPASE [1]: 16 u/L and 8.83 u/L
- PHOSPHORUS [1]: 10.7 mg/dL and 11.72 mg/dL
- POTASSIUM [1]: 6.87 MEQ/L and 5.99 MEQ/L
- SODIUM [1]: 143 MEQ/L and 143.57 MEQ/L
- TOTAL BILIRUBIN [1]: 0.4 mg/dL and 0.2 mg/dL
- TOTAL PROTEIN [1]: 6.37 G/DL and 6.1 G/DL
- URIC ACID [1]: 0.87 mg/dL and 1.38 mg/dL
- ABSOLUTE SEGMENTED NEUTROPHIL [2]: 1137.17 CELLS/uL
- BASOPHIL [2]: 0.57% and 0%
- EOSINOPHIL [2]: 1.33% and 1.67%
- ERYTHROCYTE COUNT [2]: 6.38 x10E6/uL and 5.82 x10E6/uL
- HEMATOCRIT [2]: 42.13% and 36.35%
- HEMOGLOBIN [2]: 13.6 G/DL and 13.58 G/DL
- LEUKOCYTE COUNT [2]: 13.38 x10E3/uL and 14.38 x10E3/uL
- LYMPHOCYTE [2]: 81.03% and 90.5%
- MEAN CORPUSCULAR HEMOGLOBIN [2]: 21.27 pg and 23.32 pg
- MEAN CORPUSCULAR HEMOGLOBIN CONCENTRATION [2]: 32.27 G/DL and 37.42 G/DL
- MEAN CORPUSCULAR VOLUME [2]: 66 fL and 62.42 fL
- MONOCYTE [2]: 2% and 0.17%
- NEUTROPHIL [2]: 14.33% and 7.67%
- NUCLEATED RED BLOOD CELLS [2]: 0 /100WBC
- PLATELET COUNT [2]: 1279.33 x10E3/uL and 1337.67 x10E3/uL
- ALANINE AMINOTRANSFERASE [2]: 29 u/L and 48.5 u/L
- ALBUMIN [2]: 3.8 G/DL and 4.32 G/DL
- ALKALINE PHOSPHATASE [2]: 440.33 u/L and 354.33 u/L
- ASPARTATE AMINOTRANSFERASE [2]: 61.33 u/L and 80 u/L
- BLOOD UREA NITROGEN [2]: 15.67 mg/dL and 16 mg/dL
- CARBON DIOXIDE [2]: 44.67 mmol/L and 27.33 mmol/L
- CHLORIDE [2]: 102 MEQ/L and 100.33 MEQ/L
- CHOLESTEROL [2]: 59.67 mg/dL and 68 mg/dL
- CREATINE PHOSPHOKINASE [2]: 184.33 u/L and 325.17 u/L
- CREATININE [2]: 0.3 mg/dL and 0.23 mg/dL
- GLUCOSE [2]: 180 mg/dL and 172 mg/dL
- LACTATE DEHYDROGENASE [2]: 88.33 u/L and 254.83 u/L
- LIPASE [2]: 8 u/L and 8.33 u/L
- PHOSPHORUS [2]: 10.73 mg/dL and 12.17 mg/dL
- POTASSIUM [2]: 6.5 MEQ/L and 6.28 MEQ/L
- SODIUM [2]: 145.67 MEQ/L and 143.57 MEQ/L
- TOTAL BILIRUBIN [2]: 0.3 mg/dL and 0.18 mg/dL
- TOTAL PROTEIN [2]: 6.3 G/DL and 6.12 G/DL
- URIC ACID [2]: 0.8 mg/dL and 1.78 mg/dL
- ABSOLUTE BASOPHIL [3]: 130 cells/µL
- ABSOLUTE EOSINOPHIL [3]: 60 cells/µL
- ABSOLUTE LYMPHOCYTE [3]: 9510 cells/µL
- ABSOLUTE MONOCYTE [3]: 270 cells/µL
- BASOPHIL [3]: 0.93%
- EOSINOPHIL [3]: 0.5%
- ERYTHROCYTE COUNT [3]: 7.2 x10E6/uL
- HEMATOCRIT [3]: 43.27%
- HEMOGLOBIN [3]: 14.73 G/DL
- LEUKOCYTE COUNT [3]: 12.58 x10E3/uL
- LYMPHOCYTE [3]: 75.5%
- MEAN CORPUSCULAR HEMOGLOBIN [3]: 20.5 pg
- MEAN CORPUSCULAR HEMOGLOBIN CONCENTRATION [3]: 34.07 G/DL
- MEAN CORPUSCULAR VOLUME [3]: 60.1 fL
- MONOCYTE [3]: 1.33%
- NEUTROPHIL [3]: 20.5%
- PLATELET COUNT [3]: 1162 x10E3/uL
- ALANINE AMINOTRANSFERASE [3]: 25.33 u/L
- ALBUMIN [3]: 3.87 G/DL
- ALKALINE PHOSPHATASE [3]: 321.67 u/L
- ASPARTATE AMINOTRANSFERASE [3]: 60.33 u/L
- BLOOD UREA NITROGEN [3]: 13.33 mg/dL
- CARBON DIOXIDE [3]: 45 mmol/L
- CHLORIDE [3]: 104.67 MEQ/L
- CHOLESTEROL [3]: 72.33 mg/dL
- CREATINE PHOSPHOKINASE [3]: 213.33 u/L
- CREATININE [3]: 0.3 mg/dL
- GLUCOSE [3]: 164 mg/dL
- LACTATE DEHYDROGENASE [3]: 84.33 u/L
- LIPASE [3]: 18.33 u/L
- PHOSPHORUS [3]: 10.23 mg/dL
- POTASSIUM [3]: 6.17 MEQ/L
- SODIUM [3]: 144 MEQ/L
- TOTAL BILIRUBIN [3]: 0.37 mg/dL
- TOTAL PROTEIN [3]: 6.43 G/DL
- URIC ACID [3]: 0.0667 mg/dL
- ABSOLUTE BASOPHIL [4]: 76.7 cells/µL
- ABSOLUTE EOSINOPHIL [4]: 230 cells/µL
- ABSOLUTE LYMPHOCYTE [4]: 5150 cells/µL
- ABSOLUTE MONOCYTE [4]: 220 cells/µL
- BASOPHIL [4]: 1.03%
- EOSINOPHIL [4]: 3.13%
- ERYTHROCYTE COUNT [4]: 6.58 x10E6/uL
- HEMATOCRIT [4]: 42.5%
- HEMOGLOBIN [4]: 14.4 G/DL
- LEUKOCYTE COUNT [4]: 7.41 x10E3/uL
- LYMPHOCYTE [4]: 69.3%
- MEAN CORPUSCULAR HEMOGLOBIN [4]: 21.87 pg
- MEAN CORPUSCULAR HEMOGLOBIN CONCENTRATION [4]: 33.8 G/DL
- MEAN CORPUSCULAR VOLUME [4]: 64.63 fL
- MONOCYTE [4]: 2.97%
- NEUTROPHIL [4]: 23.23%
- PLATELET COUNT [4]: 1007 x10E3/uL
- ALANINE AMINOTRANSFERASE [4]: 35 u/L
- ALBUMIN [4]: 3.7 G/DL
- ALKALINE PHOSPHATASE [4]: 368.67 u/L
- ASPARTATE AMINOTRANSFERASE [4]: 69.33 u/L
- BLOOD UREA NITROGEN [4]: 16.67 mg/dL
- CARBON DIOXIDE [4]: 34.67 mmol/L
- CHLORIDE [4]: 104 MEQ/L
- CHOLESTEROL [4]: 74.33 mg/dL
- CREATINE PHOSPHOKINASE [4]: 338.33 u/L
- CREATININE [4]: 0.47 mg/dL
- GLUCOSE [4]: 161.33 mg/dL
- LACTATE DEHYDROGENASE [4]: 274.33 u/L
- LIPASE [4]: 13 u/L
- PHOSPHORUS [4]: 11.6 mg/dL
- POTASSIUM [4]: 6.57 MEQ/L
- SODIUM [4]: 142.67 MEQ/L
- TOTAL BILIRUBIN [4]: 0.37 mg/dL
- TOTAL PROTEIN [4]: 6.03 G/DL
- URIC ACID [4]: 0.97 mg/dL
- ABSOLUTE BASOPHIL [5]: 66.7 cells/µL
- ABSOLUTE EOSINOPHIL [5]: 380 cells/µL
- ABSOLUTE LYMPHOCYTE [5]: 7010 cells/µL
- ABSOLUTE MONOCYTE [5]: 250 cells/µL
